pIC50: −log10 of the molar value. “Also recorded” adds a separate entry of the source.
What was measured:
[1] = tested on: phosphotyrosine STAT3; assay: Western blotting for phosphotyrosine STAT3 in cancer cell lines; format: cell-based, human; conditions: A-549 cells; for inhibition of phospho STAT3 levels (in words): 0-10 μM; for pIC50: Western blotting, read-out: IC50 for phospho-STAT3
Description: (§1) Western Blotting. Treated cell samples were lysed in 30 mM Hepes, pH 7.5, 10 mM NaCl, 5 mM MgCl2, 25 mM NaF, 1 mM EGTA, 1% Triton-X-100, 10% glycerol, 2 mM sodium orthovanadate, 10 μg/ml aprotinin, 10 μg/ml soybean trypsin inhibitor, 25 μg/ml leupeptin, 2 mM PMSF, and 6.4 mg/ml p-nitrophenylphosphate. Phospho-STAT3, phospho-AKT, phospho-MEK, and phospho-p42/p44 MAPK antibodies were obtained from Cell Signaling Technologies, Cambridge, Mass. Antibodies to STAT3, JAK2, and phospho-INK were purchased from Santa Cruz Biotechnology, Santa Cruz, Calif. Phospho-JAK2 antibody came from Upstate Biotechnology, Lake Placid, N.Y. Membranes were blocked in either 5% milk in PBS, pH 7.4, containing 0.1% Tween-20 (PBS-T) or 1% BSA in TBS, pH 7.5, containing 0.1% Tween-20 (TBS-T). Phospho-specific antibodies (excepting P-MAPK and P-JNK) were incubated in 1% BSA in TBS-T while all other antibodies were diluted in 5% milk in PBS-T for either 2 hr at room temperature or overnight at 4° C. HRP-conjugated secondary antibodies (Jackson ImmunoResearch) were diluted in 5% milk in either PBS-T or TBS-T at 1:1000 dilution for one hour at room temperature. Western blots were visualized using enhanced chemiluminescence as described previously (Blaskovich, M. A. et al. Nat. Biotechnol., 2000, 18:1065-1070).
Immunoprecipitation of STAT3. A549 cells were treated for 4 hr with vehicle or JSI-124, then lysed in 150 mM Hepes, pH 7.5, 150 mM NaCl, 1 mM EDTA, 0.5% Nonidet P-40 (NP-40), 10% glycerol, 5 mM NaF, 1 mM DTT, 1 mM PMSF, 2 mM sodium orthovanadate, and 5 μg/ml leupeptin. Sample lysates were collected and cleared, then 500 μg of lysate was immunoprecipitated with 50 ng STAT3 antibody overnight at 4° C. then rocked with 25 μl Protein A/G PLUS agarose (Santa Cruz Biotechnology) for 1 hr at 4° C. Samples were washed four times with lysis buffer then boiled in 2×SDS-PAGE sample buffer and run on 10% SDS-PAGE gel. Protein was transferred to nitrocellulose and then blotted as above for both phospho-specific STAT3 and STAT3.

[2] = tested on: v-Src/NIH 3T3 tumors; assay: Antitumor activity, v-Src-transformed NIH 3T3 tumors in nude mice; format: in vivo; conditions: for inhibition of growth of v-src transformed NIH 3T3 tumors (in words): 1 mg/Kg/day intraperitoneally
Excerpt: Antitumor Activity in the Nude Mouse Tumor Xenograft Model. Nude mice and C57 BL-6 black mice (National Cancer Institute, Bethesda, Md.) were maintained in accordance with the Institutional Animal Care and Use Committee (IACUC) procedures and guidelines. v-Src- and oncogenic H-Ras-transformed NIH 3T3, A549, MDA-MB-468 and Calu-1 cells were harvested, resuspended in PBS and injected s.c. into the right and left flank (10×10^6 cells per flank) of 8 week old female nude mice as reported previously (Sun, J. et al. Cancer Res., 1999, 59:4919-4926). Similarly, murine B16-F10 Melanoma cells were injected s.c. into the right and left flank (10^6 cells per flank) of C57 black mice. […] […] The tumor volumes were determined by measuring the length (l) and the width (w) and calculating the volume (V=1w^2/2) as described previously (Sun, J. et al. Cancer Res., 1999, 59:4919-4926). Statistical significance between control and treated animals were evaluated by using Student's t-test. For the mouse survival experiments, C57 BL-6 black mice were implanted s.c. with B16-F10 cells (10^5 to 10^6 cells per flank). […] Percent surviving mice was determined by monitoring the death of mice until all mice died. Two experiments of 12 animals each (6 control and 6 treated with JSI-124) were carried out. For statistical analysis: for each of the two experiments, mice receiving JSI-124 were compared to those receiving vehicle control with respect to survival using the permutation log rank test as implemented in the statistical software package, ProcStatXact (p-values are two sided and exact).

[3] = tested on: phosphotyrosine JAK2; assay: Western blotting for phosphotyrosine JAK2; format: cell-based, human; conditions: A-549 cells; for inhibition of phospho JAK2 levels (in words): 0-10 μM; for pIC50: Western blotting, read-out: IC50 for phospho-JAK2
Description: as §1

[4] = Tolerability observations in treated mice; format: in vivo
Excerpt: Antitumor Activity in the Nude Mouse Tumor Xenograft Model. Nude mice and C57 BL-6 black mice (National Cancer Institute, Bethesda, Md.) were maintained in accordance with the Institutional Animal Care and Use Committee (IACUC) procedures and guidelines. v-Src- and oncogenic H-Ras-transformed NIH 3T3, A549, MDA-MB-468 and Calu-1 cells were harvested, resuspended in PBS and injected s.c. into the right and left flank (10×10^6 cells per flank) of 8 week old female nude mice as reported previously (Sun, J. et al. Cancer Res., 1999, 59:4919-4926). Similarly, murine B16-F10 Melanoma cells were injected s.c. into the right and left flank (10^6 cells per flank) of C57 black mice. When tumors reached about 150 mm^3, animals were randomized (five animals per group; two tumors per animal) and dosed i.p. with 0.2 ml once daily. […] The tumor volumes were determined by measuring the length (l) and the width (w) and calculating the volume (V=1w^2/2) as described previously (Sun, J. et al. Cancer Res., 1999, 59:4919-4926). Statistical significance between control and treated animals were evaluated by using Student's t-test. For the mouse survival experiments, C57 BL-6 black mice were implanted s.c. with B16-F10 cells (10^5 to 10^6 cells per flank). On day 5 after implantation the mice were randomized (6 animals per group) and treated with either vehicle or JSI-124 (1 mg/Kg/day) for 25 days. Percent surviving mice was determined by monitoring the death of mice until all mice died. Two experiments of 12 animals each (6 control and 6 treated with JSI-124) were carried out. For statistical analysis: for each of the two experiments, mice receiving JSI-124 were compared to those receiving vehicle control with respect to survival using the permutation log rank test as implemented in the statistical software package, ProcStatXact (p-values are two sided and exact).

Row | Compound | inhibition of phospho STAT3 levels (in words) [1] | pIC50 [1] | inhibition of growth of v-src transformed NIH 3T3 tumors (in words) [2] | inhibition of phospho JAK2 levels (in words) [3] | pIC50 [3] | further results
1 | CC(=O)OC(C)(C)/C=C/C(=O)[C@](C)(O)[C@H]1[C@H](O)C[C@@]2(C)[C@@H]3CC=C4[C@@H](C[C@H](O)C(=O)C4(C)C)[C@]3(CO)C(=O)C[C@]12C [cucurbitacin A] | not phospho STAT3 levels; also recorded: no phospho STAT3 levels | < 5.00 | did not significantly inhibit tumor growth | inhibits only phospho JAK2 | 6.00 | inhibition of growth of v-src transformed NIH 3T3 tumors (in words) ([2]; listed as curbitacin A): did not; inhibition of growth of v-Src/NIH 3T3 tumors ([2]; 1 mg/kg/day i.p.): 16%
2 | CC(=O)OC(C)(C)/C=C/C(=O)[C@](C)(O)[C@H]1[C@H](O)C[C@@]2(C)[C@@H]3CC=C4[C@@H](C=C(O)C(=O)C4(C)C)[C@]3(C)C(=O)C[C@]12C [cucurbitacin E] | – | 6.10 | inhibit tumor growth | – | 6.70 | loss of activity against phospho-STAT3 versus cucurbitacin I [1]: four-fold
3 | cucurbitacin Q | inhibits phospho STAT3 | 5.70 | inhibit tumor growth; also recorded: as potent as curcubatacin I at inhibiting tumor growth | not phospho JAK2 levels | < 5.00 | gain in activity against STAT3 activation versus cucurbitacin B [1]: 2 fold; inhibition of growth of v-src transformed NIH 3T3 tumors (in words) ([2]; listed as Cucurbitacin Q): as potent as cucurbatacin I at inhibiting tumor growth
4 | CC(C)(O)CCC(=O)[C@](C)(O)[C@H]1[C@H](O)C[C@@]2(C)[C@@H]3CC=C4[C@@H](C[C@H](O)C(=O)C4(C)C)[C@]3(C)C(=O)C[C@]12C [tetrahydro-cucurbitacin I] | – | – | inhibit tumor growth | – | – | change of activity against phospho-STAT3 versus cucurbitacin I [1]: reduction of activity against phospho-STAT3 and phospho JAK2; change of activity against phospho JAK2 versus cucurbitacin I [3]: reduction of activity against phospho-STAT3 and phospho JAK2
5 | CC(C)(O)/C=C/C(=O)[C@](C)(O)[C@H]1[C@H](O)C[C@@]2(C)[C@@H]3CC=C4[C@@H](C[C@H](O)C(=O)C4(C)C)[C@]3(C)C(=O)C[C@]12C [cucurbitacin D] | – | – | – | – | – | reduction of activity against phospho STAT3 versus cucurbitacin B [1]: 2 fold; change of activity against phospho JAK2 versus cucurbitacin B [3]: no effects
6 | CC(=O)OC(C)(C)/C=C/C(=O)[C@](C)(O)[C@H]1[C@H](O)C[C@@]2(C)[C@@H]3CC=C4[C@H](C[C@H](O)C(=O)C4(C)C)[C@]3(C)C(=O)C[C@]12C [cucurbitacin B] | – | 5.40 | – | – | 6.70 | additional loss of inhibitory activity against phosphotyrosine-STAT3 versus cucurbitacin E [1]: five-fold; inhibition of growth of v-Src/NIH 3T3 tumors, 0.2 mpk/day ([2]; 0.2 mpk/day): 40%; toxicity in tumor-bearing nude mice at 1 mpk ([4]; 1 mg/kg/day i.p.): toxic; toxicity in tumor-bearing nude mice at 0.2 mpk/day ([4]; 0.2 mpk/day (200 μg/kg/day)): not toxic
